Laboratory results taken from the supplement of paper PMC11451515.

Tested on: NOMO1
Experiment: cell viability relative to DMSO control; higher = less cytotoxic
Conditions: 48 h
In short: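 NOMO1, SEM and P12-Ichikawa leukemia cells spent at least four passages adapting to each medium before use. They were seeded at 500 cells/well (NOMO1, SEM) or 1000 cells/well (P12-Ichikawa) in 5 μl in 1536-well plates and pin-dosed with library compounds in DMSO at 11 threefold steps from 47 μM down to 0.79 nM. After 48 h at 37°C, CellTiter-Glo One luminescence was read. Viability is reported as a percentage of the DMSO wells on each plate, with cell-free wells as background.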

[1] = HPLM + 10% dialyzed FBS, 0.000781 µM
[2] = HPLM + 10% dialyzed FBS, 0.00234 µM
[3] = HPLM + 10% dialyzed FBS, 0.00702 µM
[4] = HPLM + 10% dialyzed FBS, 0.0211 µM
[5] = HPLM + 10% dialyzed FBS, 0.0632 µM
[6] = HPLM + 10% dialyzed FBS, 0.19 µM
[7] = HPLM + 10% dialyzed FBS, 0.569 µM
[8] = HPLM + 10% dialyzed FBS, 1.71 µM
[9] = HPLM + 10% dialyzed FBS, 5.12 µM
[10] = HPLM + 10% dialyzed FBS, 15.4 µM
[11] = HPLM + 10% dialyzed FBS, 46.1 µM
[12] = RPMI 5 mM glucose + 10% FBS, 0.000781 µM
[13] = RPMI 5 mM glucose + 10% FBS, 0.00234 µM
[14] = RPMI 5 mM glucose + 10% FBS, 0.00702 µM
[15] = RPMI 5 mM glucose + 10% FBS, 0.0211 µM
[16] = RPMI 5 mM glucose + 10% FBS, 0.0632 µM
[17] = RPMI 5 mM glucose + 10% FBS, 0.19 µM
[18] = RPMI 5 mM glucose + 10% FBS, 0.569 µM
[19] = RPMI 5 mM glucose + 10% FBS, 1.71 µM
[20] = RPMI 5 mM glucose + 10% FBS, 5.12 µM
[21] = RPMI 5 mM glucose + 10% FBS, 15.4 µM
[22] = RPMI 5 mM glucose + 10% FBS, 46.1 µM
[23] = RPMI 5 mM glucose + 10% dialyzed FBS, 0.000781 µM
[24] = RPMI 5 mM glucose + 10% dialyzed FBS, 0.00234 µM
[25] = RPMI 5 mM glucose + 10% dialyzed FBS, 0.00702 µM
[26] = RPMI 5 mM glucose + 10% dialyzed FBS, 0.0211 µM
[27] = RPMI 5 mM glucose + 10% dialyzed FBS, 0.0632 µM
[28] = RPMI 5 mM glucose + 10% dialyzed FBS, 0.19 µM
[29] = RPMI 5 mM glucose + 10% dialyzed FBS, 0.569 µM
[30] = RPMI 5 mM glucose + 10% dialyzed FBS, 1.71 µM
[31] = RPMI 5 mM glucose + 10% dialyzed FBS, 5.12 µM
[32] = RPMI 5 mM glucose + 10% dialyzed FBS, 15.4 µM
[33] = RPMI 5 mM glucose + 10% dialyzed FBS, 46.1 µM

Row | SMILES | cell viability [1] | cell viability [2] | cell viability [3] | cell viability [4] | cell viability [5] | cell viability [6] | cell viability [7] | cell viability [8] | cell viability [9] | cell viability [10] | cell viability [11] | cell viability [12] | cell viability [13] | cell viability [14] | cell viability [15] | cell viability [16] | cell viability [17] | cell viability [18] | cell viability [19] | cell viability [20] | cell viability [21] | cell viability [22] | cell viability [23] | cell viability [24] | cell viability [25] | cell viability [26] | cell viability [27] | cell viability [28] | cell viability [29] | cell viability [30] | cell viability [31] | cell viability [32] | cell viability [33]
1 | CCNC(=O)c1cc2c(-c3cc(OCCN4CCCC4)c(Cl)cc3Cl)nc(N)nc2s1 | 105% | 121% | 92.7% | 107% | 102% | 104% | 105% | 86.6% | 47.3% | 17.2% | 15.8% | 84.7% | 93.6% | 95.6% | 85.6% | 95.8% | 109% | 88.2% | 88.9% | 32.3% | 13.2% | 10.1% | 107% | 103% | 115% | 111% | 82.8% | 107% | 93.2% | 76.8% | 51.2% | 18.3% | 12.5%
2 | CC(=O)NC(CS)C(=O)O (stereo unspecified) | 81.1% | 93.2% | 104% | 82.7% | 96.9% | 81.6% | 78.8% | 97% | 78.2% | 26.7% | 27.5% | 72.7% | 81.1% | 75.3% | 74.4% | 75.8% | 75.2% | 82.7% | 79.5% | 84.5% | 30.5% | 70.4% | 81.1% | 77.8% | 86.7% | 88.9% | 88.1% | 75.8% | 85.6% | 80.1% | 90.7% | 27.8% | 75.9%
3 | O=C(/C=C/c1cccc([S+](=O)([O-])Nc2ccccc2)c1)NO | 143% | 112% | 121% | 120% | 154% | 132% | 139% | 129% | 88% | 12.2% | 9.85% | – | – | – | – | – | – | – | – | – | – | – | – | – | – | – | – | – | – | – | – | – | –
4 | CC(=O)C\1=C(/C)C2=CN=C(NC3=CC=C(C=N3)N4CCNCC4)N=C2N(C5CCCC5)C1=O | – | – | – | – | – | – | – | – | – | – | – | 123% | 118% | 103% | 113% | 136% | 110% | 105% | 96.7% | 98% | 87.1% | 68.8% | 113% | 114% | 111% | 112% | 107% | 112% | 96.3% | 79.1% | 80.9% | 68.6% | 60.1%
5 | C[C@@]12O[C@@H](C[C@]1(O)CO)n1c3ccccc3c3c4c(c5c6ccccc6n2c5c31)CNC4=O | – | – | – | – | – | – | – | – | – | – | – | 106% | 128% | 102% | 121% | 119% | 96.3% | 77.3% | 42.3% | 39.9% | 24.3% | 5.7% | 103% | 118% | 122% | 138% | 110% | 99.6% | 76.4% | 50% | 31.8% | 27.4% | 4.47%
